Reference: US7799830B2, “Cinnamic acid dimers, their preparation and the use thereof for treating neurodegenerative disease” (Korea Institute of Science and Technology, priority 2002, dated 2010)

Assays:
[1] = test system: mice administered with beta-amyloid; experiment: passive avoidance test (learning and memory-retention ability of mice); format: in vivo; details: mice given compound and beta-amyloid (1-42); 24 h after training; maximum 300 seconds; average of 10 mice; FIG. 1
Experimental: Four groups of 10 mice aged 4-5 weeks, weighing 20-25 g were used in the experiment. Each sample was administered with 1% DMSO and 1% CMC using a Sonde once a day (samples: A—physiological salin solution; B—beta-amyloid; C—cinnamic acid dimer (example 1) and beta-amyloid). After injecting […] of each sample to the cerebral ventricle 3 consecutive days, passive avoidance test was conducted on the first and second day for following the last injection. All data was attained by the average of 10 mice.
In order to examine the learning and memory-retention ability of a mouse, a passive avoidance test was carried out in accordance with the method described in Song et al, J. Neurochem., 1998, 71, 875. A passive avoidance chamber equipped with a light room and a dark room was prepared, wherein the floor of the dark room was designed to deliver an electrical shock to the test animal. First, a mouse was put in the light room and, upon entering the dark room, an electrical shock of 0.25 mA was given to the animal for 1 second. […] Then, the time it took for the mouse to enter the dark room was measured as a passive avoidance time. The maximum restriction time was set at 300 seconds, i.e., in cases where the mouse took more than 300 seconds to enter the dark room, the passive avoidance time was determined to be 300 seconds.

Spraque-Dawley rats = experiment: oral toxicity test of cinnamic acid dimers; format: in vivo
Experimental: Twenty female and twenty male Spraque-Dawley rats aged 4 weeks were divided into four groups including 5 female and 5 male rats, after being raised in a vivarium of a temperature of 22±3° C., a relative humidity of 50±10%, an illumination of 150-300 Lux for 1 week.
The cinnamic acid dimers prepared in Example 1 were dissolved in corn oil, and the rats of the 4 groups were orally administered with the solution at a dose of 300, 1,000, 3,000 and 10,000 mg/kg once. […] In addition, the rats were killed on the seventh day after administration, dissected, and internal organs were examined with the unaided eye. Daily weight change was measured from the administration day and thus the weight decrease of animals attributed to cinnamic acid dimers was observed.

With `COc1cc(C=CC(=O)O)ccc1OCCOc1ccc(C=CC(=O)O)cc1OC` [Example 1, 1,2-di[2-methoxy-4-(2-carboxylvinyl)]phenoxyethane] the “step-through latency (passive avoidance time) compared with mice administered with beta-amyloid only” value [1] was “significantly higher”, the “pathological changes of internal organs at dissection” value (Spraque-Dawley rats; group administered with 5,000 mg/kg or less, seventh day after administration, unaided eye) was “No pathological changes were seen with the naked eye” and the LD50 (Spraque-Dawley rats; single oral dose in corn oil, observed for 7 days, both males and females) was 5,000 mg/kg.
